# Laboratory results reported in patent publication US20190125753A1, “COMPOUNDS AND METHODS FOR INCREASING HEMATOPOIESIS” (University of Southern California, priority 2016, published 2019).
# pIC50: −log10 of the molar value.
# Columns and labels:
# Wnt/β-catenin pathway = experiment: SuperTOPFLASH (STF1.1 Hek-293) Wnt/β-catenin-driven luciferase reporter; format: cell-based; conditions: Homo sapiens, HEK293; STF1.1 Hek-293; 1 hour pre-incubation, 10 mM LiCl 24 hours
# Protocol: A. Wnt/β-Catenin Activity: The Initial SuperTOPFLASH Screen.
# Hek293 cells were stably transfected with plasmid that contains multiple TCF/LEF fragments in front of Luciferase gene. Wnt/β-catenin activity was determined from luciferase expression levels. […] Briefly, stably transfected Hek-293, STFI.1 (Wnt/β-catenin-driven luciferase) and Survivin-Hek-293 (1 Kb Human survivin promoter-driven luciferase) cells were maintained in DMEM, 10% FBS, Pen/Strep with 400 μg/mL G418 or 2 μg/mL puromycin, respectively. To check the activity of ICG-001, YH249, and YH250, the cells were split into white-opaque 96-well plates at 10,000 cells per well and allowed to attach overnight. For SuperTOPLASH, the inhibitors were added to the cells and pre-incubated for 1 hour prior to stimulation with 10 mM Li Cl for 24 hours. Luciferase activity was read using BrightGlo (Promnega) luciferase substrate. For survivin/luc, the inhibitors were added to the cells and incubated for 24 hours prior to readout. To calculate IC5o values, the resulting curve was fitted to a four-parameter logistic model (4PL) using GraphPad Prism 5 software.
# An endogenous human survivin 1 kb promoter was inserted before a luciferase gene. […] R1 and R2 were diversified in this study. Percent inhibition of luciferase activity was calculated according to the following equations; % inhibition of STF 1.1 reporter activity=(I−RLU(10 mM LiCl) treated/RLU(10 omM LiCl) vehicle×control)100, % inhibition of Survivin reporter activity=(1−RLUtreated/RLU vehicle control)×100. Error bars indicate the mean±SE of 3 separate experiments. Selectivity (FIG. 2H) was calculated by IC50 value for Survivin-Hek-293/IC50 value for STF 1.1.
# [1] = biological target: T1, p300/γ-catenin interaction (Mus musculus, UniProt B2RWS6); experiment: Co-IP of bone marrow Sca-1posit cells from treated mice (anti-p300); format: in vivo; conditions: YH250 2 mg/kg subcutaneously, 24 hrs
# T1 construct: bone marrow Sca-1posit cells were isolated with Anti-Sca-1 microbeads; from tissue; host or cells: bone marrow Sca-1 positive cells of female C57/Black mice dosed in vivo
# Protocol: (§1) YH250 was used in this study. Female C57/Black mice were administrated with either DMSO (solvent control) or YH250 (2 mg/kg) subcutaneously. 24 hrs later, bone marrow Sca-1posit cells were isolated with Anti-Sca-1 microbeads (Miltenyi Biotec, Cat#130-092-529) for co-immunoprecipitation (FIG. 4A). Cells were then lysed and incubated with either anti-CBP (A22) or anti-p300 (C20) antibodies. Then, the immunoprecipitation complex were electrophoresed and detected with antibodies to either β-catenin or γ-catenin. […] This confirms that YH250 directly disrupts the p300/catenin interaction thereby enhancing the CBP/catenin interaction in HSPCs.
# [2] = biological target: T2, CBP/γ-catenin interaction (Mus musculus, UniProt P45481); experiment: Co-IP of bone marrow Sca-1posit cells from treated mice (anti-CBP); format: in vivo; conditions: YH250 2 mg/kg subcutaneously, 24 hrs
# T2 construct: bone marrow Sca-1posit cells were isolated with Anti-Sca-1 microbeads; from tissue; host or cells: bone marrow Sca-1 positive cells of female C57/Black mice dosed in vivo
# Protocol: as §1
# LSK150+41+48+ cells = experiment: RNA sequencing of progenitor population from treated mice; format: in vivo, mouse; conditions: 2 mg/kg vs DMSO, 16 hours
# Protocol: DMSO or YH250 (2 mg/kg) were administrated to female C57/Black mice.
# mouse bone marrow cells = experiment: 3-day in vitro culture of bone marrow cells, FACS; format: cell-based; conditions: 0.5 μM, 3 days, 200,000 live cells analyzed
# Protocol: Mouse bone marrow cells were isolated and cultured in QBSF-58 medium with DMSO or YH250 0.5 μM (medium contains 10 ng/ml of SCF, TPO, Flt3 ligand, and IL-6) for 3 days and cells are recovered and analyzed for HSC surface markers with FACS.
# [3] = system: H9 human embryonic stem cells; experiment: Maintenance of human ES cell pluripotency, 5 days; format: cell-based; conditions: 25 ng/ml Wnt3a; 500 nM YH249 or 200 nM YH250, 5 days, without FGF and TGF
# Protocol: We also determined that IQ-1 indirectly, via binding to the PR72/130 subunit of PP2A, inhibited the p300/β-catenin interaction (Id). Therefore, we anticipated that YH249/250 should also maintain mESC pluripotency in a Wnt dependent manner. To test his, R1 mESCs were cultured under feeder free conditions in the presence or absence of YH249/250 for 5 days. […] Pluripotency markers, Oct4, Nanog, Sox2, SSEA-1 and ALP, were all expressed in the cells treated with Wnt3a and YH250 (FIG. 28b). Moreover, Wnt3a could be replaced with the selective GSK-3 inhibitor CHIR99021, which activates the Wnt signaling pathway (FIG. 28a, lower panel). […] In the event, similarly to ID-8, the combination of Wnt3a and YH249/250 provided morphologically undifferentiated colonies of H9 human embryonic stem cells (hESCs) without FGF and TGF (FIG. 28c). hPSC markers were detected by ALP staining and immunofluorescence (FIG. 28d). In addition to H9 cells, two other hESC lines and a human induced pluripotent stem (iPS) cell line could be also maintained undifferentiated morphology utilizing the same conditions (not shown).
# Specifically, FIG. 28A-28D, show maintenance of ESC's pluripotency by YH249 and YH250. […] 28A, Typical colony morphologies of RI mouse ES cells cultured 5 days in [upper panel] […]
# T1 sequence (B2RWS6 2-2412 limits assumed): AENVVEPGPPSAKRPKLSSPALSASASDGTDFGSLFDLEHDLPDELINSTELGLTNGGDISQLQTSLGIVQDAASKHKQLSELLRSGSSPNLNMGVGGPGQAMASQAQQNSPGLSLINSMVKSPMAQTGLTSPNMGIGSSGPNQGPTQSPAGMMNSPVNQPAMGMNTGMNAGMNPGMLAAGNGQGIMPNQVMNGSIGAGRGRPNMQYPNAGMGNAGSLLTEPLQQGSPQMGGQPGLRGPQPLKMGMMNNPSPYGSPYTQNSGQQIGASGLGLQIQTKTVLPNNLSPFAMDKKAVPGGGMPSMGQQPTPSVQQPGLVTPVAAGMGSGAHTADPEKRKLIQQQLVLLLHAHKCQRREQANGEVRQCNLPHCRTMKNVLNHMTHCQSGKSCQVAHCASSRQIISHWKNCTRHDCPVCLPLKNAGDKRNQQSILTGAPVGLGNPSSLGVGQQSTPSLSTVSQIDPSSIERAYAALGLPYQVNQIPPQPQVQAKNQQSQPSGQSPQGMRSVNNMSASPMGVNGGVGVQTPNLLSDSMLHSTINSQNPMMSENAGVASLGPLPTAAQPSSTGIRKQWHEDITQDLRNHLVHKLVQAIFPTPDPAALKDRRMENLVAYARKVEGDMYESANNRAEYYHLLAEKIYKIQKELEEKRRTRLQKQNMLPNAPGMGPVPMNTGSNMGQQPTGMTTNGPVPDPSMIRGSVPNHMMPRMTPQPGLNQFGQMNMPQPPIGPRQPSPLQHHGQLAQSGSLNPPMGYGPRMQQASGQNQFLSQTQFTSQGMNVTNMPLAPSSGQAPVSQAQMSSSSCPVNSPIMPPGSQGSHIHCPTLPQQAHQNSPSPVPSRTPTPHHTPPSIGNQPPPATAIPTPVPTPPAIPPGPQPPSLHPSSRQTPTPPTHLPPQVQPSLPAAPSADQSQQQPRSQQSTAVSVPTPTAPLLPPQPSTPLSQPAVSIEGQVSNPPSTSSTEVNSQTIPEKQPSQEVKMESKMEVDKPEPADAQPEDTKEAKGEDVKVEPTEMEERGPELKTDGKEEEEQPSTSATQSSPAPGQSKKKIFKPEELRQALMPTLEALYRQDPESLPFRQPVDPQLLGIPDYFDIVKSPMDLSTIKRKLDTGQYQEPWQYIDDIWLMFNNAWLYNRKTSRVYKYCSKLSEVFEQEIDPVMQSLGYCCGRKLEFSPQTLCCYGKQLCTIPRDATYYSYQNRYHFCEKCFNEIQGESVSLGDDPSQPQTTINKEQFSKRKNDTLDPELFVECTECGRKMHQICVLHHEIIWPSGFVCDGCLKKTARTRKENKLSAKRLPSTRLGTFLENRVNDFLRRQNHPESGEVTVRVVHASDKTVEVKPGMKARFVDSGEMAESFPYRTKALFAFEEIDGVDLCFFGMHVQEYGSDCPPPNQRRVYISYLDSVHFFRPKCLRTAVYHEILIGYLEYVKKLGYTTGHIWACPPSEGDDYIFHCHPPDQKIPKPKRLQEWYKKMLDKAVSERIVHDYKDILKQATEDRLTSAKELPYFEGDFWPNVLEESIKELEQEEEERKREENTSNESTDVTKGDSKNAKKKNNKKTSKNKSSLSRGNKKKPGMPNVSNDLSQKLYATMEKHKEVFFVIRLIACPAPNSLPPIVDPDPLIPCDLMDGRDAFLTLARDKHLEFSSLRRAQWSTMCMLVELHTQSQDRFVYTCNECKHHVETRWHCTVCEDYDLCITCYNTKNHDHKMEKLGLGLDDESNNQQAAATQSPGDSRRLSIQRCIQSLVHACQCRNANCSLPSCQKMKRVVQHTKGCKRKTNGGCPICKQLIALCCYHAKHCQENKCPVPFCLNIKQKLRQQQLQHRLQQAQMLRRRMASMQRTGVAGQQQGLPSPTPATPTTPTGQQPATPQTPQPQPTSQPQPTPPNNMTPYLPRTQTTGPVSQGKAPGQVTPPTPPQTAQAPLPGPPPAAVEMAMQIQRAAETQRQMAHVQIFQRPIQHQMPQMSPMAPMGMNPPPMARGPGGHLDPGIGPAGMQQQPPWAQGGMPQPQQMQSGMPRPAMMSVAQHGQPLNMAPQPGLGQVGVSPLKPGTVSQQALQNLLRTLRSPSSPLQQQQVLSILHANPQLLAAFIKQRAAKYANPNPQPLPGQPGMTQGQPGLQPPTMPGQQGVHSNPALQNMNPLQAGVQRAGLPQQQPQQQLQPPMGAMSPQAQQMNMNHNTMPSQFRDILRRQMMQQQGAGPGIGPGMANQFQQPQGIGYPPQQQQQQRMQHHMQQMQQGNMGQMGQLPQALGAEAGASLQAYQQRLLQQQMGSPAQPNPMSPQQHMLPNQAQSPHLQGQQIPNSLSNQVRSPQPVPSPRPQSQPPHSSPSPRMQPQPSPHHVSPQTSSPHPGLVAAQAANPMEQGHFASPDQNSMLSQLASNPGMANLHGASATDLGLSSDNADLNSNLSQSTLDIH
# T2 sequence (P45481 2-2441 limits assumed): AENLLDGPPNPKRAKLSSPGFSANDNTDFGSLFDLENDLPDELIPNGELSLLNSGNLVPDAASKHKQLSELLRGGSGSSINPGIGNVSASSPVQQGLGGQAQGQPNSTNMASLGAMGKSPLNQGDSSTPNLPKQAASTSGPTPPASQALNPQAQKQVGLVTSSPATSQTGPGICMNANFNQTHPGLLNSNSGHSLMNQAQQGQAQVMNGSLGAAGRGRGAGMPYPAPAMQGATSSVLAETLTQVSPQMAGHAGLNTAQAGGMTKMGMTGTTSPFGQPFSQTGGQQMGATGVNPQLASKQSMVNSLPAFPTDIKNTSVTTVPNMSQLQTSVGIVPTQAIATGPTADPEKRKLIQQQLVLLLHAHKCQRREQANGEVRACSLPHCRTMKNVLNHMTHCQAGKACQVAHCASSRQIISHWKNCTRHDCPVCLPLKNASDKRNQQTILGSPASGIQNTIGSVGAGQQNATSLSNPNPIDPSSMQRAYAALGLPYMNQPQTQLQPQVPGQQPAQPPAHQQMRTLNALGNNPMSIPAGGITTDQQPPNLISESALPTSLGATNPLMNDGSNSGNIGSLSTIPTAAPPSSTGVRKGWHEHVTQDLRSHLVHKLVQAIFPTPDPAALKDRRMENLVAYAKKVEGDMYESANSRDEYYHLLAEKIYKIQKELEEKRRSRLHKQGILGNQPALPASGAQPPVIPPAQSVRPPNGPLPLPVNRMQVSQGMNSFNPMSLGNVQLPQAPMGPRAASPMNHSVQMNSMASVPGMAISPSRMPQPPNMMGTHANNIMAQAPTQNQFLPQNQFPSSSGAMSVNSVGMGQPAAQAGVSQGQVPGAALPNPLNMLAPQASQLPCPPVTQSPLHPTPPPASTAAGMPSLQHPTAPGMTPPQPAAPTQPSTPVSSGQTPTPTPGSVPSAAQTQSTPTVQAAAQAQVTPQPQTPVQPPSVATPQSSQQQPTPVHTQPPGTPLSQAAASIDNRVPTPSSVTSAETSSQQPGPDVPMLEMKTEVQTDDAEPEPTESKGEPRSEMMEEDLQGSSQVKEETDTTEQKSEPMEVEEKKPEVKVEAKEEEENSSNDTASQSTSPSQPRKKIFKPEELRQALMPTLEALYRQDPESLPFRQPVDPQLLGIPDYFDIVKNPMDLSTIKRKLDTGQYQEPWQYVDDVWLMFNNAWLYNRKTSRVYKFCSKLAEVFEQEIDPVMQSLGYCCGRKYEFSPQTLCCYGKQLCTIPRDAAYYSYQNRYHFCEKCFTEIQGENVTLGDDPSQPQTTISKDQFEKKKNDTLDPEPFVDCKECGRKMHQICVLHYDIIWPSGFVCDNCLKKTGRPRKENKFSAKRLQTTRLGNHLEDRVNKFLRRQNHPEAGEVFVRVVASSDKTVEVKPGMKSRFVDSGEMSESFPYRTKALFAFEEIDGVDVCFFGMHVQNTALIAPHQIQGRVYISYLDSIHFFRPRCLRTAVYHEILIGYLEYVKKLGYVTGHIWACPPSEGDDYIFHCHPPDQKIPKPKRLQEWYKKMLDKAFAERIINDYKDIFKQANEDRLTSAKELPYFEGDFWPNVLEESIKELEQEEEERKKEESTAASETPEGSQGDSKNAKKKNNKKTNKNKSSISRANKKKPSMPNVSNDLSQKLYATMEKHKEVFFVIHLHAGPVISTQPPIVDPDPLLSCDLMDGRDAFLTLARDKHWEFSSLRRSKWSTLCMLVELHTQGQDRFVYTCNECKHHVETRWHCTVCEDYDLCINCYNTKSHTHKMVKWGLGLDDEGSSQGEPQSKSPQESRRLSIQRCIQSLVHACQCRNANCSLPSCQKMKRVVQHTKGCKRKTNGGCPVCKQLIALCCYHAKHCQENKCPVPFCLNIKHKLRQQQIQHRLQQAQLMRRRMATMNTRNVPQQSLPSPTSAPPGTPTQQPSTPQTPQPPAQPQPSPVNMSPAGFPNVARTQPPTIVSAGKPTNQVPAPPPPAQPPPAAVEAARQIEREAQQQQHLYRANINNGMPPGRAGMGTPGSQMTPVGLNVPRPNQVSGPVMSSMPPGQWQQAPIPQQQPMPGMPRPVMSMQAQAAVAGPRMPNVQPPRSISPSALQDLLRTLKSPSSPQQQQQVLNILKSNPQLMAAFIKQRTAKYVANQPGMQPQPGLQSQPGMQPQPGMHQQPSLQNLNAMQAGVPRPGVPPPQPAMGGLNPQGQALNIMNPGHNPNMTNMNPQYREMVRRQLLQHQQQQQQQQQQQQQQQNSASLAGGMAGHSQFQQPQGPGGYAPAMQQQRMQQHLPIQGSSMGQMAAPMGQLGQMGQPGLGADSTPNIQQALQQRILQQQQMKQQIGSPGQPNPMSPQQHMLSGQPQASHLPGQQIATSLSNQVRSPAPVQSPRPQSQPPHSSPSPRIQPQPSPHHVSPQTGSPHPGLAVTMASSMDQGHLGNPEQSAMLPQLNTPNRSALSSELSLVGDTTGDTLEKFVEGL
compound,measurement,setting,value
COc1cccc(CNC(=O)N2C3CN(Cc4cc(Cl)cc(Cl)c4N(C)C)C(=O)[C@H](Cc4ccc(O)cc4)N3C(=O)CN2C)c1OC (stereo partly shown) [YH250],pIC50,Wnt/β-catenin pathway,> 7.00
same,p300/γ-catenin interaction,[1],inhibits p300/γ-catenin interaction
same,CBP/γ-catenin interaction,[2],promotes CBP/γ-catenin interaction
same,Fold-Change Car1,LSK150+41+48+ cells,−12.1 fold
same,Fold-Change Gm26377 (miRNA),LSK150+41+48+ cells,−3.19 fold
same,Fold-Change Ighm,LSK150+41+48+ cells,2.36 fold
same,Fold-Change Ighv11-2,LSK150+41+48+ cells,4.42 fold
same,Fold-Change Igkv19-93,LSK150+41+48+ cells,3.12 fold
same,Fold-Change Mid1,LSK150+41+48+ cells,−2.8 fold
same,LSK 48 − 150+ %,mouse bone marrow cells,16%
same,LSK 135 + 34+ %,mouse bone marrow cells,67%
same,LSK 135 + 34+ Cell#,mouse bone marrow cells,4263
same,LSK 135 − 34+ %,mouse bone marrow cells,25%
same,LSK 135 − 34+ Cell#,mouse bone marrow cells,1602
same,LSK 135 − 34− %,mouse bone marrow cells,7%
same,LSK 135 − 34− Cell#,mouse bone marrow cells,445
same,LSK %,mouse bone marrow cells,16%
same,LSK Cell#,mouse bone marrow cells,6340
same,Lin-neg %,mouse bone marrow cells,20%
same,Lin-neg Cell#,mouse bone marrow cells,40015
same,LSK 48 − 150+ Cell#,mouse bone marrow cells; DMSO 607,992
same,hESC pluripotency,[3],maintain pluripotency
